The values below come from ChEMBL document CHEMBL3045975, “In vitro anti-inflammatory potential and QSAR analysis of oxazolo/thiazolo pyrimidine derivatives” (Med Chem Res, 2013).

The test in a line: In vitro anti-inflammatory activity assessed as inhibition of heat-induced albumin denaturtion incubated for 15 min followed by heating measured after 10 min. It is filed as functional.
With `COc1ccc(/C=c2\oc3n(c2=O)C(c2ccccc2)C(C(=O)Nc2ccccc2)=C(C)N=3)cc1` (configuration not stated), the IC50 is listed as 304.179 ppm.
The result for `CC1=C(C(=O)Nc2ccccc2)C(c2ccc([N+](=O)[O-])cc2)n2c(s/c(=C\c3ccc(N(C)C)cc3)c2=O)=N1` (configuration not stated) reads 336.75 ppm; that for `COc1ccc(/C=c2\oc3n(c2=O)C(c2ccc([N+](=O)[O-])cc2)C(C(=O)Nc2ccccc2)=C(C)N=3)cc1` (configuration not stated), 259.104 ppm; that for `CC1=C(C(=O)Nc2ccccc2)C(c2ccc([N+](=O)[O-])cc2)n2c(o/c(=C\c3ccc(Cl)cc3)c2=O)=N1` (configuration not stated), 196.05 ppm.
The result for `CC1=C(C(=O)Nc2ccccc2)C(c2ccc([N+](=O)[O-])cc2)n2c(o/c(=C\c3ccc(N(C)C)cc3)c2=O)=N1` (configuration not stated) reads 339.35 ppm.
`COc1ccc(C2C(C(=O)Nc3ccccc3)=C(C)N=c3s/c(=C\c4ccc([N+](=O)[O-])cc4)c(=O)n32)cc1` (configuration not stated): the IC50 amounted to 254.99 ppm.
For `COc1ccc(C2C(C(=O)Nc3ccccc3)=C(C)N=c3s/c(=C\c4ccc(N(C)C)cc4)c(=O)n32)cc1` (configuration not stated), the IC50 amounted to 301.677 ppm.
The result for `COc1ccc(C2C(C(=O)Nc3ccccc3)=C(C)N=c3o/c(=C\c4ccc(Cl)cc4)c(=O)n32)cc1` (configuration not stated) reads 236.954 ppm.
The result for `COc1ccc(C2C(C(=O)Nc3ccccc3)=C(C)N=c3o/c(=C\c4ccc([N+](=O)[O-])cc4)c(=O)n32)cc1` (configuration not stated) reads 272.584 ppm; that for `COc1ccc(C2C(C(=O)Nc3ccccc3)=C(C)N=c3o/c(=C\c4ccc(N(C)C)cc4)c(=O)n32)cc1` (configuration not stated), 314.544 ppm.
With `COc1ccc(/C=c2\sc3n(c2=O)C(c2ccc(Cl)cc2)C(C(=O)Nc2ccccc2)=C(C)N=3)cc1` (configuration not stated), the IC50 is 232.597 ppm.
For the compound `CC1=C(C(=O)Nc2ccccc2)C(c2ccc(Cl)cc2)n2c(s/c(=C\c3ccc([N+](=O)[O-])cc3)c2=O)=N1` (configuration not stated), the IC50 is 190.42 ppm.
Then `CC1=C(C(=O)Nc2ccccc2)C(c2ccc(Cl)cc2)n2c(s/c(=C\c3ccc(N(C)C)cc3)c2=O)=N1` (configuration not stated), with 309.862 ppm; and `COc1ccc(/C=c2\oc3n(c2=O)C(c2ccc(Cl)cc2)C(C(=O)Nc2ccccc2)=C(C)N=3)cc1` (configuration not stated), with 242.144 ppm; and `CC1=C(C(=O)Nc2ccccc2)C(c2ccc(Cl)cc2)n2c(o/c(=C\c3ccc([N+](=O)[O-])cc3)c2=O)=N1` (configuration not stated), with 192.486 ppm.
On to `CC1=C(C(=O)Nc2ccccc2)C(c2ccc(Cl)cc2)n2c(o/c(=C\c3ccc(N(C)C)cc3)c2=O)=N1` (configuration not stated), for which the IC50 is 319.524 ppm.
Consider `COc1ccc(/C=c2\sc3n(c2=O)C(c2ccc([N+](=O)[O-])cc2)C(C(=O)Nc2ccccc2)=C(C)N=3)cc1` (configuration not stated), for which the IC50 stood at 250.38 ppm.
For `CC1=C(C(=O)Nc2ccccc2)C(c2ccc([N+](=O)[O-])cc2)n2c(s/c(=C\c3ccc(Cl)cc3)c2=O)=N1` (configuration not stated), the IC50 is recorded as 194.611 ppm.
`COc1ccc(/C=c2\sc3n(c2=O)C(c2ccccc2)C(C(=O)Nc2ccccc2)=C(C)N=3)cc1` (configuration not stated): the IC50 is reported as 291.257 ppm.
Consider `CC1=C(C(=O)Nc2ccccc2)C(c2ccccc2)n2c(s/c(=C\c3ccc(Cl)cc3)c2=O)=N1` (configuration not stated), for which the IC50 turned out to be 226.318 ppm.
Then `CC1=C(C(=O)Nc2ccccc2)C(c2ccccc2)n2c(s/c(=C\c3ccc([N+](=O)[O-])cc3)c2=O)=N1` (configuration not stated), with 253.376 ppm; and `CC1=C(C(=O)Nc2ccccc2)C(c2ccccc2)n2c(s/c(=C\c3ccc(N(C)C)cc3)c2=O)=N1` (configuration not stated), with 316.686 ppm.
Regarding `CC1=C(C(=O)Nc2ccccc2)C(c2ccccc2)n2c(o/c(=C\c3ccc(Cl)cc3)c2=O)=N1` (configuration not stated), the IC50 was found to be 261.464 ppm.
The result for `CC1=C(C(=O)Nc2ccccc2)C(c2ccccc2)n2c(o/c(=C\c3ccc([N+](=O)[O-])cc3)c2=O)=N1` (configuration not stated) reads 283.525 ppm.
Regarding `CC1=C(C(=O)Nc2ccccc2)C(c2ccccc2)n2c(o/c(=C\c3ccc(N(C)C)cc3)c2=O)=N1` (configuration not stated), the IC50 is recorded as 330.312 ppm.
Regarding `COc1ccc(C2C(C(=O)Nc3ccccc3)=C(C)N=c3s/c(=C\c4ccc(Cl)cc4)c(=O)n32)cc1` (configuration not stated), the IC50 turned out to be 210.874 ppm.
As to `O=C([O-])Cc1ccccc1Nc1c(Cl)cccc1Cl.[Na+]` [DICLOFENAC SODIUM], the IC50 is reported as 188.24 ppm.
